Laboratory results: ChEMBL document CHEMBL3885861, “Open TG-GATES”

Organism: Rattus norvegicus
Assay: Open TG-GATES - Regimen: Single
Assay type: toxicity, organism-based, Sprague-Dawley
Set-up: regimen Single, gender Male, age 6 weeks
Settings: in vivo, po, route gavage; for Eos / Fbg / Hb / Ht / Lym / MCH / MCHC / MCV / Mono / Neu / PT / Plat / RBC / WBC / APTT / Bas: tissue Blood; for KIDNEY_L / KIDNEY_R / KIDNEY_TOTAL: tissue Kidney; for LIVER: tissue Liver; for ALT / AST / BUN / CRE / Cl / DBIL / GLC / IP / LDH / Na / RALB / TBIL / TC / TG / TP / gamma-GTP: tissue Plasma
[1] = 20 mg/kg, 3 h, dose level Middle
[2] = 20 mg/kg, 6 h, dose level Middle
[3] = 20 mg/kg, 9 h, dose level Middle
[4] = 20 mg/kg, 24 h, dose level Middle
[5] = 60 mg/kg, 24 h, dose level High

## CC/C(=C(\c1ccccc1)c1ccc(OCCN(C)C)cc1)c1ccccc1 [TAMOXIFEN]
[1]
  Eos: 1%
  Fbg: 267 mg/dL
  Hb: 13 g/dL
  Ht: 39.3%
  Lym: 78%
  MCH: 21 pg
  MCHC: 33%
  MCV: 63.8 fL
  Mono: 4.2%
  Neu: 16.6%
  PT: 12.1 s
  Plat: 116.7 x10_4/uL
  RBC: 616 x10_4/ul
  WBC: 103.9 x10_2/uL
  KIDNEY_L: 0.8 g
  KIDNEY_R: 0.8 g
  KIDNEY_TOTAL: 1.6 g
  LIVER: 8.4 g
  ALT: 51 IU/L
  AST: 81.2 IU/L
  BUN: 10.4 mg/dL
  CRE: 0.2 mg/dL
  Cl: 106.6 meq/L
  DBIL: 0.016 mg/dL
  GLC: 178.8 mg/dL
  IP: 9.8 mg/dL
  LDH: 56 IU/L
  Na: 140 meq/L
  RALB: 2.6 g/dL
  TBIL: 0.052 mg/dL
  TC: 91.8 mg/dL
  TG: 86 mg/dL
  TP: 5.5 g/dL
  gamma-GTP: 1.2 IU/L
[2]
  TERMINAL_BW: 192.3 g
  APTT: 18.2 s
  Bas: 0%
  Eos: 1.2%
  Fbg: 269.4 mg/dL
  Hb: 13.2 g/dL
  Ht: 39.4%
  Lym: 73.8%
  MCH: 21.3 pg
  MCHC: 33.5%
  MCV: 63.7 fL
  Mono: 4.2%
  Neu: 20.4%
  PT: 12.1 s
  Plat: 107 x10_4/uL
  RBC: 618.2 x10_4/ul
  WBC: 64.9 x10_2/uL
  KIDNEY_L: 0.8 g
  KIDNEY_R: 0.8 g
  KIDNEY_TOTAL: 1.6 g
  LIVER: 7.7 g
  ALT: 43.4 IU/L
  AST: 82.8 IU/L
  BUN: 8 mg/dL
  CRE: 0.2 mg/dL
  Cl: 109 meq/L
  DBIL: 0.008 mg/dL
  GLC: 175.8 mg/dL
  IP: 10.7 mg/dL
  LDH: 92.4 IU/L
  Na: 141.8 meq/L
  RALB: 2.6 g/dL
  TBIL: 0.048 mg/dL
  TC: 82.2 mg/dL
  TG: 45.4 mg/dL
  TP: 5.4 g/dL
  gamma-GTP: 1.4 IU/L
[3]
  TERMINAL_BW: 194.8 g
  APTT: 16.1 s
  Bas: 0%
  Eos: 1%
  Fbg: 252.6 mg/dL
  Hb: 12.7 g/dL
  Ht: 38%
  Lym: 74.4%
  MCH: 21.6 pg
  MCHC: 33.3%
  MCV: 64.9 fL
  Mono: 2.8%
  Neu: 21.6%
  PT: 12.4 s
  Plat: 114.1 x10_4/uL
  RBC: 585.4 x10_4/ul
  WBC: 73.4 x10_2/uL
  KIDNEY_L: 0.8 g
  KIDNEY_R: 0.8 g
  KIDNEY_TOTAL: 1.7 g
  LIVER: 7.1 g
  ALT: 40 IU/L
  AST: 75.8 IU/L
  BUN: 8.6 mg/dL
  CRE: 0.2 mg/dL
  Cl: 107.6 meq/L
  DBIL: 0.008 mg/dL
  GLC: 178.8 mg/dL
  IP: 11 mg/dL
  LDH: 46 IU/L
  Na: 141.4 meq/L
  RALB: 2.4 g/dL
  TBIL: 0.042 mg/dL
  TC: 61.8 mg/dL
  TG: 35.4 mg/dL
  TP: 5.1 g/dL
  gamma-GTP: 1 IU/L
[4]
  TERMINAL_BW: 194.8 g
  APTT: 16.8 s
  Bas: 0%
  Eos: 1.2%
  Fbg: 232.8 mg/dL
  Hb: 12.7 g/dL
  Ht: 38.5%
  Lym: 79%
  MCH: 21.3 pg
  MCHC: 33%
  MCV: 64.5 fL
  Mono: 2.4%
  Neu: 17.2%
  PT: 12.8 s
  Plat: 117 x10_4/uL
  RBC: 597.6 x10_4/ul
  WBC: 83.2 x10_2/uL
  KIDNEY_L: 0.9 g
  KIDNEY_R: 0.9 g
  KIDNEY_TOTAL: 1.8 g
  LIVER: 8.7 g
  ALT: 52.2 IU/L
  AST: 79.2 IU/L
  BUN: 13 mg/dL
  CRE: 0.2 mg/dL
  Cl: 109.6 meq/L
  DBIL: 0.016 mg/dL
  GLC: 186 mg/dL
  IP: 8.3 mg/dL
  LDH: 64 IU/L
  Na: 143.2 meq/L
  RALB: 2.6 g/dL
  TBIL: 0.038 mg/dL
  TC: 60.2 mg/dL
  TG: 84.6 mg/dL
  TP: 5.4 g/dL
  gamma-GTP: 1.4 IU/L
60 mg/kg, 3 h, dose level High
  TERMINAL_BW: 193.1 g
  APTT: 16.1 s
  Bas: 0%
  Eos: 1%
  Fbg: 259.8 mg/dL
  Hb: 13.1 g/dL
  Ht: 39.5%
  Lym: 77.6%
  MCH: 21.8 pg
  MCHC: 33.3%
  MCV: 65.7 fL
  Mono: 3.8%
  Neu: 17.4%
  PT: 11.9 s
  Plat: 112.1 x10_4/uL
  RBC: 601.4 x10_4/ul
  WBC: 80.5 x10_2/uL
  KIDNEY_L: 0.9 g
  KIDNEY_R: 0.9 g
  KIDNEY_TOTAL: 1.7 g
  LIVER: 8.3 g
  ALT: 50.8 IU/L
  AST: 82.6 IU/L
  BUN: 9.4 mg/dL
  CRE: 0.2 mg/dL
  Cl: 106.8 meq/L
  DBIL: 0.026 mg/dL
  GLC: 169.2 mg/dL
  IP: 9.5 mg/dL
  LDH: 77 IU/L
  Na: 140.8 meq/L
  RALB: 2.6 g/dL
  TBIL: 0.05 mg/dL
  TC: 80 mg/dL
  TG: 106.2 mg/dL
  TP: 5.6 g/dL
  gamma-GTP: 1 IU/L
60 mg/kg, 6 h, dose level High
  TERMINAL_BW: 193.6 g
  Bas: 0%
  Eos: 0.8%
  Fbg: 252.6 mg/dL
  Hb: 12.8 g/dL
  Lym: 78.8%
  MCH: 21.5 pg
  MCHC: 33.4%
  MCV: 64.3 fL
  Mono: 2.6%
  Neu: 17.6%
  PT: 12.2 s
  Plat: 112.7 x10_4/uL
  RBC: 595.6 x10_4/ul
  WBC: 59.9 x10_2/uL
  KIDNEY_L: 0.8 g
  KIDNEY_R: 0.9 g
  KIDNEY_TOTAL: 1.7 g
  LIVER: 7.5 g
  ALT: 38.8 IU/L
  AST: 74.2 IU/L
  BUN: 7.6 mg/dL
  CRE: 0.2 mg/dL
  Cl: 109.4 meq/L
  DBIL: 0.012 mg/dL
  GLC: 175 mg/dL
  IP: 10.4 mg/dL
  LDH: 54.4 IU/L
  Na: 141.8 meq/L
  RALB: 2.5 g/dL
  TBIL: 0.042 mg/dL
  TC: 76.4 mg/dL
  TG: 56.2 mg/dL
  TP: 5.2 g/dL
  gamma-GTP: 1.2 IU/L
60 mg/kg, 9 h, dose level High
  TERMINAL_BW: 193.9 g
  APTT: 14.5 s
  Bas: 0%
  Eos: 0.8%
  Fbg: 274.6 mg/dL
  Hb: 13 g/dL
  Ht: 38.6%
  Lym: 79%
  MCH: 22.2 pg
  MCHC: 33.7%
  MCV: 65.8 fL
  Mono: 2.4%
  Neu: 17.4%
  PT: 12.1 s
  Plat: 121.3 x10_4/uL
  RBC: 586.6 x10_4/ul
  WBC: 71.5 x10_2/uL
  KIDNEY_L: 0.8 g
  KIDNEY_R: 0.8 g
  KIDNEY_TOTAL: 1.7 g
  LIVER: 7.3 g
  ALT: 43.8 IU/L
  AST: 75.2 IU/L
  BUN: 8.4 mg/dL
  CRE: 0.2 mg/dL
  Cl: 107 meq/L
  DBIL: 0.01 mg/dL
  GLC: 184.6 mg/dL
  IP: 11.2 mg/dL
  LDH: 59.8 IU/L
  Na: 141.6 meq/L
  RALB: 2.5 g/dL
  TBIL: 0.044 mg/dL
  TC: 79.4 mg/dL
  TG: 39 mg/dL
  TP: 5.3 g/dL
  gamma-GTP: 1.4 IU/L
[5]
  TERMINAL_BW: 193.1 g
  APTT: 15.8 s
  Bas: 0.2%
  Eos: 1.2%
  Fbg: 260.2 mg/dL
  Hb: 13.2 g/dL
  Ht: 39.4%
  Lym: 80.8%
  MCH: 21.5 pg
  MCHC: 33.4%
  MCV: 64.5 fL
  Mono: 3.2%
  Neu: 14.2%
  PT: 12.9 s
  Plat: 113.6 x10_4/uL
  RBC: 611.2 x10_4/ul
  WBC: 91.3 x10_2/uL
  KIDNEY_L: 0.9 g
  KIDNEY_R: 0.9 g
  KIDNEY_TOTAL: 1.7 g
  LIVER: 8.4 g
  ALT: 45 IU/L
  AST: 71.6 IU/L
  BUN: 12.8 mg/dL
  CRE: 0.2 mg/dL
  Cl: 109.4 meq/L
  DBIL: 0.018 mg/dL
  GLC: 185.8 mg/dL
  IP: 8.3 mg/dL
  LDH: 54 IU/L
  Na: 143.2 meq/L
  RALB: 2.6 g/dL
  TBIL: 0.044 mg/dL
  TC: 51.4 mg/dL
  TG: 81 mg/dL
  TP: 5.4 g/dL
  gamma-GTP: 1 IU/L
